In brackets after ≈: the same amount, converted by molar mass. Several values for one entry are separate records, joined by “and”; a condition that tells them apart may be missing. Identical values can stand only once.

Experimental findings from PMC9571408, “Synthesis of Isomeric 3-Benzazecines Decorated with Endocyclic Allene Moiety and Exocyclic Conjugated Double Bond and Evaluation of Their Anticholinesterase Activity” (Molecules, 2022) are described below.

Data set [1] deals with T1, human recombinant monoamine oxidase B (Homo sapiens, UniProt P27338).
T1 construct: purchased Sigma Aldrich; host or cells: baculovirus infected insect cells (microsomes)
T1 sequence (P27338 1-520): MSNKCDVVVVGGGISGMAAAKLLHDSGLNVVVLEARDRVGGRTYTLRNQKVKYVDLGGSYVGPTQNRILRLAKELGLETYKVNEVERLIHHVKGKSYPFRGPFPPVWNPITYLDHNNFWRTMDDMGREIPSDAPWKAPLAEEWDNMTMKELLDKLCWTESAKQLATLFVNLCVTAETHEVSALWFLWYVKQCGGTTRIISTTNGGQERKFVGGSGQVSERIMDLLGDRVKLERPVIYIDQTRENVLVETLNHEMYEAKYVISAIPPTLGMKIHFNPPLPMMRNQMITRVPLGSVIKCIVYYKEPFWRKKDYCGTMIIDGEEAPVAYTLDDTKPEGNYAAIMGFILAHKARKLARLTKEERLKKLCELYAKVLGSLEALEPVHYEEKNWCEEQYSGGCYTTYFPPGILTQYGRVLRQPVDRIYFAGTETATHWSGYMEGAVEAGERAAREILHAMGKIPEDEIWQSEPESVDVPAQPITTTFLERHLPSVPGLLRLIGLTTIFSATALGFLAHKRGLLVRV
The data set can be described thus: Inhibition of MAO-B, kynuramine fluorescence assay. The data set is classed as biochemical. Conditions: mean ± SD. The protocol:
(§1) Herein, a number of newly and previously synthesized 3-benzazecine analogs, including either allene (Figure 1, scaffold A) or 6- and 8-ylidene (B and C) derivatives, were firstly assayed as inhibitors of AChE, BChE, and MAOs at 10 μM concentration.
(§2) Inhibition of human recombinant monoamine oxidases A (250 U/mg) and B (59 U/mg; microsomes from baculovirus infected insect cells; Sigma Aldrich) was determined as already described, measuring the fluorescence of 4-hydroxyquinoline produced by MAOs in the oxidative deamination of substrate kynuramine. Briefly, compounds were tested in coincubation with MAO and kynuramine in phosphate buffer 390 mOsm pH 7.4, at 37 °C for 30 min. Assays were performed in 96-well black polystyrene plates (Greiner) using the Infinite M1000 Pro plate reader (Tecan). Inhibition data were obtained as means ± SD using GraphPad Prism.

The target of data set [2] is T2, human recombinant monoamine oxidase A (Homo sapiens, UniProt P21397).
T2 construct: purchased Sigma Aldrich; host or cells: baculovirus infected insect cells (microsomes)
T2 sequence (P21397 1-527): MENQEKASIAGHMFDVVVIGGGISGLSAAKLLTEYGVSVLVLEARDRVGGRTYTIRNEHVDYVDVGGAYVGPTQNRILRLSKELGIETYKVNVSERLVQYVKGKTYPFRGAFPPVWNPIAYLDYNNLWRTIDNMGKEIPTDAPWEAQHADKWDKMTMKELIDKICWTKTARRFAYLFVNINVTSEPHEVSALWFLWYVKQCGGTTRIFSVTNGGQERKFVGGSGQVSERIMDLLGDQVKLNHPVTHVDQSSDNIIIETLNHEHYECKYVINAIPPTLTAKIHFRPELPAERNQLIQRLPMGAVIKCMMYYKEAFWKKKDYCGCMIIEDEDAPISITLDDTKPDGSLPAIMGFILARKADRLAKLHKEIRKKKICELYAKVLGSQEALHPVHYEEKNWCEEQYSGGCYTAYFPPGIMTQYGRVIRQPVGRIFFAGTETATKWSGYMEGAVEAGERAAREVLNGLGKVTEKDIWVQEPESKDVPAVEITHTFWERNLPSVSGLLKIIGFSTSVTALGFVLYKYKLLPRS
The data set can be described thus: Inhibition of MAO-A, kynuramine fluorescence assay. The data set is classed as biochemical. Conditions: mean ± SD. The protocol:
as §1, §2

Data set [3] deals with human recombinant AChE (Homo sapiens, UniProt P22303). To be noted: for IC50: read-out: hAChE half-maximal inhibitory concentration, mean ± SD of three independent measurements, unit from b17 (low μM range). How it is done: as §1
Sequence of human recombinant AChE (P22303 32-614): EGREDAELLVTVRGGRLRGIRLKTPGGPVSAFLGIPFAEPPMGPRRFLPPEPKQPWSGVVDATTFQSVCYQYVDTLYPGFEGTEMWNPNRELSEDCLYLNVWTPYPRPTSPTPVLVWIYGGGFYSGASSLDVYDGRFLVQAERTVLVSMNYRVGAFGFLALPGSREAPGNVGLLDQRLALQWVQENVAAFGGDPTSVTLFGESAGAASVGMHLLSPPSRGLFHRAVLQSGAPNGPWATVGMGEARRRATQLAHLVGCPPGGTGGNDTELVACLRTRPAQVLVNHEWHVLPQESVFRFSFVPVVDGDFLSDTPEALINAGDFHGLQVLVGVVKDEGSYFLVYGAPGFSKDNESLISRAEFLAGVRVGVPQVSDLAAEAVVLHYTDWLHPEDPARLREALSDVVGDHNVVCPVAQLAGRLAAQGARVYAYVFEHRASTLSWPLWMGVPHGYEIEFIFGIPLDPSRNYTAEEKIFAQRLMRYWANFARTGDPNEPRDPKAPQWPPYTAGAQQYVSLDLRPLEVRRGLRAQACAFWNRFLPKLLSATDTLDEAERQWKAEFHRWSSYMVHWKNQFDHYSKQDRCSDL
(§3) Inhibition of human recombinant AChE (2770 U/mg) or BChE from human serum (50 U/mg) was determined as described using the Ellman spectrophotometric method in a 96-well plate procedure. Briefly, test compounds were incubated in phosphate buffer pH 8.0 in the presence of the enzyme and 5,5′-dithiobis-(2-nitrobenzoic acid) (DTNB) as the chromophoric reagent. Incubation samples were made in 96-well, flat-bottomed transparent polystyrene plates (Greiner Bio-One, Kremsmünster, Austria), at 25 °C for 20 min, and read at 412 nm using an Infinite M1000 Pro plate reader (Tecan, Cernusco s.N., Italy). For inhibition kinetics, four concentrations of compound 3e (ranging from 0 to 15 μM), and six concentrations of acetylthiocholine (from 33 to 200 μM) were used. Inhibition data and kinetics were obtained as means ± SD from 3 independent experiments, using GraphPad Prism (version 5.00 for Windows; GraphPad Software, San Diego, CA, USA).

Data set [4] has as its target BChE from human serum (Homo sapiens, UniProt P06276). To be noted: screened at 10 μM; n.i. = no inhibition. How it is done:
as §1, §3

The nature of data set [5]: Hydrolytic stability in water-buffered solution by U-HPLC. To be noted: PBS pH 7.4, 0.15 M KCl, 37 °C (table footnote). The protocol:
At appropriate time intervals, samples were withdrawn and analyzed by U-HPLC using a 1290 Infinity Quaternary LC system (Agilent Technologies, Milan, Italy) equipped with autosampler and photodiode array detector. A Phenomenex Kinetex C18 column 2.6 µm (150 × 2.1 mm i.d.) was used as stationary phase. […] Pseudo-first-order rate constants (kobs) for the hydrolysis of the compound were calculated from the slopes of the linear plots of log (% remaining compound) against time.

Data set [6] in a line: Kinetic aqueous solubility by U-HPLC. How it is done:
Following shaking of the suspension in an orbital shaker at 250 rpm for 2 h, the solution was separated by centrifugation (2500 rpm, 3 min) and filtered. Equal volume of solution was transferred into 1:1 (v/v) mixture of DMSO/PBS. The concentration of compound was determined by U-HPLC and UV detector (255 nm) comparing the peak area of external standard solution. All data were means of 3 independent experiments (± SEM). […] HPLC analyses were performed on an Agilent U-HPLC 1260 Infinity Quaternary LC system (Agilent Technologies, Milan, Italy) (Table 4).

Sequence of BChE from human serum (P06276 29-602): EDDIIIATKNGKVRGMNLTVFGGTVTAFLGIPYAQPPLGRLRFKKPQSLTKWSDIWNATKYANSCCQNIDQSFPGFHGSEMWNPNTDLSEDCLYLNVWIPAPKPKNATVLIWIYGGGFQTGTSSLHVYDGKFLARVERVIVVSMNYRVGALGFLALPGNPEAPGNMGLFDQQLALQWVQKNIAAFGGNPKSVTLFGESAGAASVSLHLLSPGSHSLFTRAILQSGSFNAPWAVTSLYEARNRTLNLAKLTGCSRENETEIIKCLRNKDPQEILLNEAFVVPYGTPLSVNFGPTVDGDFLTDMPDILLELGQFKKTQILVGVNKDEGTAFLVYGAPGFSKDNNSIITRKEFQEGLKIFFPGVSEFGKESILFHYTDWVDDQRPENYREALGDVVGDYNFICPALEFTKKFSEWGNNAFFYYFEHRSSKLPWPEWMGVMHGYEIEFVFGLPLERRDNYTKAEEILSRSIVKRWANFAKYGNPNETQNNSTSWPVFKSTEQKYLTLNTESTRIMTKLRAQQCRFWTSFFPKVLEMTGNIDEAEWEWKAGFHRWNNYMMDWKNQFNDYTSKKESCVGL

For the compound `COCC1=C=C(c2ccc(C)cc2)c2cc(OC)c(OC)cc2CCN(C)C=C1C(=O)OC` [Compound 3d, Methyl 3-methyl-8-(4-methylphenyl)-10,11-dimethoxy-6-(methoxymethyl)-benzo[d]-3-aza-cyclodeca-4,6,7-triene-5-carboxylate], in data set [1], the “hMAO-B % inhibition at 10 μM” value is reported as “(30 ± 5) %”. The “hMAO-A % inhibition at 10 μM” value in data set [2] is on record as “(30 ± 4) %”. For the same compound, the IC50 in data set [3] turned out to be 19.3 ± 3.3 µM. In addition, the hBChE inhibition result in data set [4] is “n.i”.

Turning to `COCC1=C=C(c2ccc(OC)cc2)c2cc(OC)c(OC)cc2CCN(C)C=C1C(=O)OC` [Compound 3e, Methyl 3-methyl-10,11-dimethoxy-6-methoxymethyl-8-(4-methoxyphenyl)-benzo[d]-3-aza-cyclodeca-4,6,7-triene-5-carboxylate], the Hydrolytic half-life in data set [5] was found to be 4.5 h. Also, the “hMAO-B % inhibition at 10 μM” value in data set [1] is “(23 ± 1) %”. Besides, the “hMAO-A % inhibition at 10 μM” value in data set [2] is listed as “(37 ± 5) %”. The “Water solubility relative to 3n” value in data set [6] (3e vs 3n, buffered aqueous solution pH 7.4) is 90 fold. Further, in data set [6] (PBS pH 7.4, 0.15 M KCl, 37 °C, kinetic solubility), the Solubility (in general, the dissolved amount per volume that the medium holds) was 17.4 ± 0.7 µM (≈ 8.1 µg/mL). The Ki (in general, a dissociation constant, usually derived from enzyme kinetics or from competition with a known ligand) in data set [3] (read-out: AChE inhibition, Ki, Lineweaver–Burk inhibition kinetics, acetylthiocholine substrate) was 4.9 µM and 4.89 µM. For the same compound, the IC50 in data set [3] was 12.2 ± 2.6 µM. The hBChE inhibition result in data set [4] is recorded as “n.i”.

Take `COCC1=C=C(c2ccc(C)cc2)c2cc(OC)c(OC)cc2CCN(C)C=C1C(C)=O` [Compound 3i, 1-(3-Methyl-8-(4-methylphenyl)-10,11-dimethoxy-6-methoxymethyl-benzo[d]-3-aza-cyclodeca-4,6,7-trien-5-yl)ethanone]: the “hMAO-B % inhibition at 10 μM” value in data set [1] is on record as “(38 ± 4) %”. In addition, in data set [2], the “hMAO-A % inhibition at 10 μM” value is given as “(28 ± 1) %”. Further, the IC50 in data set [3] was 32.5 ± 4.4 µM. In addition, in data set [4], the hBChE inhibition result is on record as “n.i”.

As for `COCC1=C=C(c2ccc(OC)cc2)c2cc(OC)c(OC)cc2CCN(C)C=C1C(C)=O` [Compound 3j, 1-(3-Methyl-10,11-dimethoxy-6-methoxymethyl-8-(4-methoxyphenyl)-benzo[d]-3-aza-cyclodeca-4,6,7-trien-5-yl)ethanone], the “hMAO-B % inhibition at 10 μM” value in data set [1] is “(28 ± 5) %”. Further, the “hMAO-A % inhibition at 10 μM” value in data set [2] is on record as “(29 ± 5) %”. Besides, the IC50 in data set [3] came out at 13.2 ± 0.7 µM. Further, in data set [4], the hBChE inhibition entry is “n.i”.
